Here are results for 16 molecules from US6895396B2, “Neural network methods to predict enzyme inhibitor or receptor ligand potency” (Albert Einstein College of Medicine of Yeshiva University, priority 1998, dated 2005).

Chain of cytidine deaminase (P0ABF6 whole entry): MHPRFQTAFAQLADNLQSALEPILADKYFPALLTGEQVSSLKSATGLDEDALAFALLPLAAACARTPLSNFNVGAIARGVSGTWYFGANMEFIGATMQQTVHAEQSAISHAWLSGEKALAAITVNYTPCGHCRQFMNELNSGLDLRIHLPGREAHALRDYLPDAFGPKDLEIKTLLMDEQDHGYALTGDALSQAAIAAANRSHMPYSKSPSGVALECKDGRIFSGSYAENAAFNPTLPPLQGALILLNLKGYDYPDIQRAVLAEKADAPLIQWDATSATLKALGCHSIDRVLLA

One test concerns the target T1, adenosine deaminase (Homo sapiens, UniProt P00813).
T1 sequence (P00813 1-363): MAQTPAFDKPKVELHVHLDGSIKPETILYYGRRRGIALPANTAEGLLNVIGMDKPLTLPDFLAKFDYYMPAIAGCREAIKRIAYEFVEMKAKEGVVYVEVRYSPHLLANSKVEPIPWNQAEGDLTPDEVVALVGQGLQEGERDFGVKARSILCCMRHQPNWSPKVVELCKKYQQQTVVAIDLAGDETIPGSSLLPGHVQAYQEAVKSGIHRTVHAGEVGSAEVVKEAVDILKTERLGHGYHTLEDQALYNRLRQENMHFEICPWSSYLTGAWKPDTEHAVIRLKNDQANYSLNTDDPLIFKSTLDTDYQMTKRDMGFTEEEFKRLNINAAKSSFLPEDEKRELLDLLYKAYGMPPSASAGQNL
The test can be described thus: Adenosine deaminase binding free energy, experimental.
Settings: not given
Turning to `OC[C@H]1O[C@@H](n2cnc3c2N=CNC3)[C@H](O)[C@@H]1O` [1,6-dihydropurine ribonucleoside], the “inhibitor quality in words” value is given as “not a good inhibitor”.

Staying with this test, now noted: binding free energy, dimensionless.
On to `OC[C@H]1O[C@@H](n2cnc3c2N=CNC3)[C@H](O)[C@@H]1O` [1,6-dihydropurine ribonucleoside], for which the “ΔG/RT (experimental)” value is −12.

For the molecule `Nc1ncnc2c1ncn2[C@@H]1O[C@H](CO)[C@@H](O)[C@H]1O` [adenosine], the “ΔG/RT (experimental)” value is recorded as −10.

Turning to `OC[C@H]1O[C@@H](n2cnc3c2NC=N[C@@H]3O)[C@H](O)[C@@H]1O` [hydrated purine ribonucleoside], the “ΔG/RT (experimental)” value is given as −29.

For the molecule (R)-coformycin, the “ΔG/RT (experimental)” value is −25.

The subject of another test is AMP nucleosidase.
Experiment: not given
To be noted: binding free energy, dimensionless.
As for `Nc1ncnc2c1ncn2[C@@H]1O[C@H](COP(=O)(O)O)[C@@H](O)[C@H]1O` [AMP], the “ΔG/RT (experimental)” value is on record as −9.0.

Turning to `Nc1ncnc2c([C@@H]3O[C@H](CO)[C@@H](O)[C@H]3O)[nH]nc12` [formycin], the “ΔG/RT (experimental)” value is recorded as −17.

`Nc1ncnc2c1ccn2[C@@H]1O[C@H](CO)[C@@H](O)[C@H]1O` [tubercidin]: the “ΔG/RT (experimental)” value is −9.9.

Turning to aminopyrazolo pyrimidine ribonucleotide, the “ΔG/RT (experimental)” value is given as −12.

Another test concerns the target cytidine deaminase (Escherichia coli, UniProt P0ABF6).
Experiment: not given
To be noted: binding free energy from the literature; cited from earlier work.
Turning to `O=C1NCC=CN1[C@@H]1O[C@H](CO)[C@@H](O)[C@H]1O` [3,4-dihydrozebularine], the “ΔG/RT (experimental)” value is listed as −10.

Take `NC1=NC(=O)N([C@@H]2O[C@H](CO)[C@@H](O)[C@H]2O)CC1` [5,6-dihydrocytidine]: the “ΔG/RT (experimental)” value was −9.1.

Turning to `Nc1ccn([C@@H]2O[C@H](CO)[C@@H](O)[C@H]2O)c(=O)n1` [cytidine], the “ΔG/RT (experimental)” value is reported as −9.9.

As to `O=C1NC(O)C(Cl)=CN1[C@@H]1O[C@H](CO)[C@@H](O)[C@H]1O` (some centres unmarked) [hydrated 5-chloro-pyrimidine-2-one ribonucleoside], the “ΔG/RT (experimental)” value is given as −19.

Regarding `O=C1NC(O)C(F)=CN1[C@@H]1O[C@H](CO)[C@@H](O)[C@H]1O` (some centres unmarked) [hydrated 5-fluoro-pyrimidine-2-one ribonucleoside], the “ΔG/RT (experimental)” value is −24.

`O=c1ccn([C@@H]2O[C@H](CO)[C@@H](O)[C@H]2O)c(=O)[nH]1` [uridine]: the “ΔG/RT (experimental)” value is listed as −6.0.

“hydrated 5-bromo-pyrimidine-2-one ribonucleoside”: the “ΔG/RT (experimental)” value is −18.

In the case of “hydrated pyrimidine-2-one ribonucleoside”, the “ΔG/RT (experimental)” value is listed as −27.
